In one assay the target is T1, HDAC1 (Homo sapiens, UniProt Q13547).
T1 construct: purchased Enzolifesciences BML-AK511
Put plainly: HDAC1 enzyme inhibition, HDAC1 fluorimetric drug discovery assay kit. It is filed as biochemical. The conditions noted are these: 100-10000 nM tested, 37° C. 60 minutes, fluorescence; read-out: HDAC1 (μM), ability to inhibit the activity of HDAC enzyme. Here is the method:
(§1) Using a HDAC1 fluorimetric drug discovery assay kit (Enzolifesciences: BML-AK511) and a HDAC6 human recombinant (Calbiochem: 382180), the HDAC enzyme inhibitory abilities of test compounds were measured. It was treated with 100, 1000 and 10000 nM concentrations for HDAC1 assay, and 0.1, 1, 10, 100 and 1000 nM concentrations for HDAC6 assay. It was allowed to react at 37° C. for 60 minutes, and then was treated with a developer and allowed to react at 37° C. for 30 minutes, after which the fluorescence intensity (Ex 390 nm; Em 460 nm) was measured using FlexStatin3 (Molecular Device).

Another assay addresses T2, HDAC6 human recombinant (Homo sapiens, UniProt Q9UBN7).
T2 construct: purchased Calbiochem 382180
T2 sequence (Q9UBN7 1-1215): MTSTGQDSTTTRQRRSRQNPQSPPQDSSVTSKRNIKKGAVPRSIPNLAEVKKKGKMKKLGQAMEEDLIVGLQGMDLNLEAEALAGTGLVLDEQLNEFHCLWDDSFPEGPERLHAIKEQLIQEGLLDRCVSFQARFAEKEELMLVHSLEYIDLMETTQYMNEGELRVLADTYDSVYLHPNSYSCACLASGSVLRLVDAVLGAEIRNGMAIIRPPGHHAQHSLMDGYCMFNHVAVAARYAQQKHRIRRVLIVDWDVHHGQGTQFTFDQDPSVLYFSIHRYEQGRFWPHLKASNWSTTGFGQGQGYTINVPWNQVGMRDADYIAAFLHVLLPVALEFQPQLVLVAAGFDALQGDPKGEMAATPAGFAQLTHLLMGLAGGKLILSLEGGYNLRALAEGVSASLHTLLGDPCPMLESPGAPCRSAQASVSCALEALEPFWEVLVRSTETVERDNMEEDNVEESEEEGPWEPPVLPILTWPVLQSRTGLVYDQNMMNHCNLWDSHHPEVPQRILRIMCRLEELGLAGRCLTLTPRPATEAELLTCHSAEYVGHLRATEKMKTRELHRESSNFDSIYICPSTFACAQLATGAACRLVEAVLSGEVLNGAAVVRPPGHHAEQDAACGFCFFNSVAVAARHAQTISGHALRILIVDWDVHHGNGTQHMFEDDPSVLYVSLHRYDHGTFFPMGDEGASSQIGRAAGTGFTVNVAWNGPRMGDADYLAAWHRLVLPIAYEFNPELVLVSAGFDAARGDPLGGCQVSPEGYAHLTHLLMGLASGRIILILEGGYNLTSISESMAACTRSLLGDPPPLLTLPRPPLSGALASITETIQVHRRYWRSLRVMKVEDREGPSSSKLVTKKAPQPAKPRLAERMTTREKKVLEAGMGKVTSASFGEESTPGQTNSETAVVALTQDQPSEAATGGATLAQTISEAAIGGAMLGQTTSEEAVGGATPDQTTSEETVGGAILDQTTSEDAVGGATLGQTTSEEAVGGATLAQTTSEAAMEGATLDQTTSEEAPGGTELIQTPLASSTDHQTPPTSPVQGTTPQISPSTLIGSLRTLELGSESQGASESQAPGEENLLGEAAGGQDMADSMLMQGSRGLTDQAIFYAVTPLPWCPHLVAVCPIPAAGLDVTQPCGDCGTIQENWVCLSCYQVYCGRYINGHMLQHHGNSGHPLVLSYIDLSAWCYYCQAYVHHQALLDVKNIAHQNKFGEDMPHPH
Put plainly: HDAC6 enzyme inhibition, fluorimetric assay. The assay is classed as biochemical. The conditions noted are these: for IC50: 0.1-1000 nM tested, 37° C. 60 minutes, fluorescence, read-out: HDAC6 (μM), ability to inhibit the activity of HDAC enzyme; for selectivity for HDAC1/6 enzymes (HDAC1/HDAC6): ratio of HDAC1 to HDAC6 values. Here is the method: as §1

T1 sequence (Q13547 whole entry): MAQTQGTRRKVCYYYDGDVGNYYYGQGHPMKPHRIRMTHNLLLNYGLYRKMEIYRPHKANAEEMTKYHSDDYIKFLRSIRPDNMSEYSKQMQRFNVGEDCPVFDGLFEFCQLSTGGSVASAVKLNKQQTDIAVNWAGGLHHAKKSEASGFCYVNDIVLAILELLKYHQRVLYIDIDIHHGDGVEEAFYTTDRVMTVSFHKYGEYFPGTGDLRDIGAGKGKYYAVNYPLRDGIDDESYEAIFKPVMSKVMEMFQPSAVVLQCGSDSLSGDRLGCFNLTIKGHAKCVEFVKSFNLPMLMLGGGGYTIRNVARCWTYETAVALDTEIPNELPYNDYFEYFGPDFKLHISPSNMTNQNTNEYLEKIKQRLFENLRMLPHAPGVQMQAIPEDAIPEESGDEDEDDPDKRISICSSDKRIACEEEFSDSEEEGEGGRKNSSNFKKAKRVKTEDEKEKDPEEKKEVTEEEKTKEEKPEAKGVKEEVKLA

`O=C(CCCCCCNC(=O)N1CCC(C(O)(c2ccccc2)c2ccccc2)CC1)NO` [Compound 1124, N-(7-(hydroxyamino)-7-oxoheptyl)-4-(hydroxydiphenylmethyl)piperidine-1-carboxamide]: the IC50 on HDAC1 came out at 4.09 µM. At HDAC6 human recombinant, the IC50 is 0.024 µM and the “selectivity for HDAC1/6 enzymes (HDAC1/HDAC6)” value turned out to be 170 fold.
Take `O=C(CCCCCNC(=O)N1CCN(C(c2ccccc2)c2ccccc2)CC1)NO` [Compound 1257, 4-benzhydryl-N-(6-(hydroxyamino)-6-oxohexyl)piperazine-1-carboxamide]: the IC50 on HDAC1 amounted to 0.159 µM; on HDAC6 human recombinant it was 0.063 µM.
Taken in the same sequence, the figures for `O=C(CCCCCCNC(=O)N1CCC(N(c2ccccc2)c2ccc(F)cc2)CC1)NO` [Compound 1734, 4-((4-fluorophenyl)(phenyl)amino)-N-(7-(hydroxyamino)-7-oxoheptyl)piperidine-1-carboxamide] were 0.886 µM and 0.094 µM.
Taken in the same sequence, the figures for `O=C(CCCCCCNC(=O)N1CCC(C(F)(c2ccccc2)c2ccccc2)CC1)NO` [Compound 1649, 4-(fluorodiphenylmethyl)-N-(7-(hydroxyamino)-7-oxoheptyl)piperidine-1-carboxamide] were 0.463 µM and 0.033 µM.
For `O=C(CCCCCCCNC(=O)C1CCN(C(c2ccccc2)c2ccccc2)CC1)NO` [Compound 1317], in that order: 0.023 µM and 0.336 µM.
For `CN(CCCCCCC(=O)NO)C(=O)C1CCN(C(c2ccccc2)c2ccccc2)CC1` [Compound 1256, 1-benzhydryl-N-(7-(hydroxyamino)-7-oxoheptyl)-N-methylpiperidine-4-carboxamide], the IC50 on HDAC1 was determined as 0.08 µM; on HDAC6 human recombinant, 0.038 µM.
For `O=C(CCCCCCNC(=O)N1CCN(C(c2ccccn2)c2ccccn2)CC1)NO` [Compound 1222], in that order: 0.71 µM and 0.085 µM.
Consider `O=C(CCCCCNC(=O)N1CC2(CCN(C(c3ccccc3)c3ccccc3)CC2)C1)NO` [Compound 1763, 7-benzhydryl-N-(6-(hydroxyamino)-6-oxohexyl)-2,7-diazaspiro[3.5]nonane-2-carboxamide], for which the IC50 at HDAC1 worked out at 0.023 µM; at HDAC6 human recombinant, 0.201 µM.
In the case of `C[C@H]1CN(C(c2ccccc2)c2ccccc2)CCN1C(=O)NCCCCCCC(=O)NO` [Compound 1190, (S)-4-benzhydryl-N-(7-(hydroxyamino)-7-oxoheptyl)-2-methylpiperazine-1-carboxamide], the IC50 on HDAC1 was 1.34 µM; on HDAC6 human recombinant, 0.065 µM.
Turning to `C[C@@H]1CN(C(c2ccccc2)c2ccccc2)C[C@H](C)N1C(=O)NCCCCCCC(=O)NO` [Compound 1188, (2S,6R)-4-benzhydryl-N-(7-(hydroxyamino)-7-oxoheptyl)-2,6-dimethylpiperazine-1-carboxyamide], the values for the IC50 on HDAC1 and on HDAC6 human recombinant were 1.68 µM and 0.014 µM, respectively.
`CC(c1ccccc1)N1CCC(C(=O)NCCCCCCC(=O)NO)CC1` (stereo not drawn) [Compound 1243, N-(7-(hydroxyamino)-7-oxoheptyl)-1-(1-phenylethyl)piperidine-4-carboxamide]: the IC50 at HDAC1 was determined as 0.54 µM; on HDAC6 human recombinant, 0.017 µM.
For `O=C(CCCCCCNS(=O)(=O)N1CCC(C(O)(c2ccccc2)c2ccccc2)CC1)NO` [Compound 1210, N-hydroxy-7-((4-(hydroxydiphenylmethyl)piperidine)-1-sulfonamido)heptanamide], in that order: 1.19 µM and 0.07 µM.
Turning to `O=C(CCCCCCNC(=O)N1CCN(C(c2ccccc2F)c2ccccc2F)CC1)NO` [Compound 1647, 4-(bis(2-fluorophenyl)methyl)-N-(7-(hydroxyamino)-7-oxoheptyl)piperazine-1-carboxamide], the IC50 at HDAC1 amounted to 0.466 µM; at HDAC6 human recombinant it was 0.019 µM.
For `O=C(CCCCCCNC(=O)N1CCN(C(c2ccc(Cl)cc2)c2ccc(Cl)cc2)CC1)NO` [Compound 1224], in that order: 3.96 µM and 0.087 µM.
For `O=C(CCCCCCCNC(=O)N1CCN(C(c2ccccc2)c2ccccc2)CC1)NO` [Compound 1240, 4-benzhydryl-N-(8-(hydroxyamino)-8-oxoethyl)piperazine-1-carboxamide], in that order: 0.41 µM and 0.07 µM.
For “N-(7-(hydroxyamino)-7-oxoheptyl)-4-(phenyl(4-(trifluoromethyl)phenyl)amino)piperidine-1-carboxamie [Compound 1726]”, in that order: 3.7 µM and 0.228 µM.
As for `C[C@@H]1CN(C(c2ccccc2)c2ccccc2)CCN1C(=O)NCCCCCCC(=O)NO` [Compound 1189, (R)-4-benzhydryl-N-(7-(hydroxyamino)-7-oxoheptyl)-2-methylpiperazine-1-carboxamide], the IC50 is 0.84 µM on HDAC1 and 0.025 µM at HDAC6 human recombinant.
Consider `O=C(CCCCCCNC(=O)C1CCN(C(c2ccccc2)c2ccccc2)CC1)NO` [Compound 1209, 1-benzhydryl-N-(7-(hydroxyamino)-7-oxoheptyl)piperidine-4-carboxamide], for which the IC50 at HDAC1 was found to be 1.16 µM. Further, on HDAC6 human recombinant, the IC50 was determined as 0.006 µM and the “selectivity for HDAC1/6 enzymes (HDAC1/HDAC6)” value is 193 fold.
With `O=C(CCCCCCNC(=O)N1CCC(N(c2ccccc2)c2ccccc2)CC1)NO` [Compound 1221, 4-(diphenylamino)-N-(7-(hydroxyamino)-7-oxoheptyl)piperidine-1-carboxamide], the values for the IC50 on HDAC1 and at HDAC6 human recombinant were 1.88 µM and 0.079 µM, respectively.
Taken in the same sequence, the figures for `O=C(CCCCCCNC(=O)N1CCN(C(c2cccc(F)c2)c2cccc(F)c2)CC1)NO` [Compound 1648] were 0.729 µM and 0.029 µM.
For `O=C(CCCCCCNC(=O)N1CC2(CCN(C(c3ccccc3)c3ccccc3)CC2)C1)NO` [Compound 1764, 7-benzhydryl-N-(7-(hydroxyamino)-7-oxoheptyl)-2,7-diazaspiro[3.5]nonane-2-carboxamide], in that order: 0.236 µM and 0.04 µM.
For `O=C(CCCCCCNC(=O)N1CCC(N(c2ccccc2)c2cccc(F)c2)CC1)NO` [Compound 1719, 4-((3-fluorophenyl)(phenyl)amino)-N-(7-(hydroxyamino)-7-oxoheptyl)piperidine-1-carboxamide], in that order: 1.73 µM and 0.116 µM.
With `O=C(CCCCCCNC(=O)N1CCN(C(c2ccc(F)cc2)c2ccc(F)cc2)CC1)NO` [Compound 1223], the IC50 at HDAC1 stood at 1.16 µM; at HDAC6 human recombinant it was 0.073 µM.
For `CN(CCCCCCC(=O)NO)C(=O)N1CCN(C(c2ccccc2)c2ccccc2)CC1` [Compound 1213, 4-benzhydryl-N-(7-(hydroxyamino)-7-oxoheptyl)-N-methylpiperazine-1-carboxamide], in that order: 0.704 µM and 0.044 µM.
Taken in the same sequence, the figures for `O=C(CCCCCNC(=O)C1CCN(C(c2ccccc2)c2ccccc2)CC1)NO` [Compound 1316, 1-benzhydryl-N-(6-(hydroxyamino)-6-oxohexyl)piperidine-4-carboxamide] were 0.236 µM and 0.456 µM.
Taken in the same sequence, the figures for `CC(c1ccccc1)N1CCN(C(=O)NCCCCCCC(=O)NO)CC1` (stereo not drawn) [Compound 1241, N-(7-(hydroxyamino)-7-oxoheptyl)-4-(1-phenylethyl)piperazine-1-carboxamide] were 0.72 µM and 0.025 µM.
